Reference: ChEMBL document CHEMBL1130576, “Design and synthesis of a macrocyclic E-Selectin antagonist” (Bioorg Med Chem Lett, 1997)

Tests used:
[1] = biological target: T1, E-selectin (Homo sapiens) (UniProt P16581); test: Compound was evaluated for in vitro affinity towards Selectin E
T1 sequence (whole entry): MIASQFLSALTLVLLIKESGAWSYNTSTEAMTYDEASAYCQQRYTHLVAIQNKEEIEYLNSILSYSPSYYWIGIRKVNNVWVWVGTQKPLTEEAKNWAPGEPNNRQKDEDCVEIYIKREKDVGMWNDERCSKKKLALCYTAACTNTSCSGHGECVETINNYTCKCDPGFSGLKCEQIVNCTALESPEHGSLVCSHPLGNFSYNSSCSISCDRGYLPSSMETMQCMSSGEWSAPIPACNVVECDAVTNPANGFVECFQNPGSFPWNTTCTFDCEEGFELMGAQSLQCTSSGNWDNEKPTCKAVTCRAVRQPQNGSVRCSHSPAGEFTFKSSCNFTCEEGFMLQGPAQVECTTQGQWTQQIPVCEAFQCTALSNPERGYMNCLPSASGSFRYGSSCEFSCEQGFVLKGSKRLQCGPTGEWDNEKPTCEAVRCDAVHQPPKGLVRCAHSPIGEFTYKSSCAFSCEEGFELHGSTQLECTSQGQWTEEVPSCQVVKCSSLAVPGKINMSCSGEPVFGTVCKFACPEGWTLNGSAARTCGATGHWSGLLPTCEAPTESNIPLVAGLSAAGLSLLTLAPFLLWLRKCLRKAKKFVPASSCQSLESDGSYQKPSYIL

[2] = biological target: T1, E-selectin (Homo sapiens); test: Compound was evaluated for in vitro affinity towards Selectin E, activity expressed as IC50 relative to Sialyl lewisX

Row | Compound | RIC50 [1] | RIC50 [2]
1 | COC(=O)CCCCCCCCO[C@@H]1O[C@@H](CO)[C@@H](O[C@@H]2O[C@@H](CO)[C@H](O)[C@H](O[C@]3(C(=O)O)C[C@@H](O)[C@@H](NC(C)=O)[C@H]([C@H](O)[C@H](O)CO)O3)[C@@H]2O)[C@H](O[C@@H]2O[C@@H](C)[C@@H](O)[C@H](O)[C@@H]2O)[C@@H]1NC(C)=O | 1 | 
2 | O=C(O)CC[C@@H]1O[C@@H](O[C@@H]2CCCC[C@H]2O[C@@H]2O[C@@H](CO)[C@H](O)[C@H](O[C@@H](Cc3ccccc3)C(=O)O)[C@@H]2O)[C@@H](O)[C@@H](O)[C@@H]1O |  | 0.39
3 | O=C1CC[C@@H]2O[C@@H](O[C@@H]3CCCC[C@H]3O[C@@H]3O[C@@H](CO)[C@H](O)[C@H](O[C@@H](Cc4ccccc4)C(=O)O)[C@H]3O1)[C@@H](O)[C@@H](O)[C@@H]2O |  | 2.8
